Results from ChEMBL document CHEMBL1144052, “Cytotoxic 3,4-secoapotirucallanes from Aaglaia argentea bark” (J Nat Prod, 1999).
Converted amounts (≈) assume the structure as drawn. The source made the active and inactive calls. The calls are words filed in the database; no cut-off is given here.

The compounds below were run on KB (assay: Cytotoxicity against human KB cells).
Assay type: functional, cell-based
For `CC(C)=C[C@@H]1C[C@@H]([C@@H]2CC=C3[C@@]4(C)[C@H](CC[C@]32C)[C@@](C)(CCC(=O)O)[C@@H](C(C)(C)O)C[C@H]4OC(=O)[C@H](O)C(C)C)CO1`, the Activity was “inactive”.
`COC(=O)CC[C@@]1(C)[C@@H](C(C)(C)O)C[C@@H](OC(=O)[C@H](O)C(C)C)[C@@]2(C)C3=CC[C@@H]([C@H]4CO[C@H](C=C(C)C)C4)[C@]3(C)CC[C@H]12` [ARGENTINIC ACID B METHYL ESTER] showed an IC50 of 2 µg/mL (≈ 3.32 µM).
With `C/C=C(\C)[C@@H](O)C(=O)O[C@@H]1C[C@H](C(C)(C)O)[C@](C)(CCC(=O)O)[C@H]2[C@H](OC(=O)[C@H](O)C(C)C)C[C@]3(C)C(=CC[C@H]3[C@H]3CO[C@H](C=C(C)C)C3)[C@@]21C` the Activity was “inactive”.
With `CC[C@@H](C)[C@@H](O)C(=O)O[C@@H]1C[C@]2(C)C(=CC[C@H]2[C@H]2CO[C@H](C=C(C)C)C2)[C@@]2(C)[C@H]1[C@@](C)(CCC(=O)O)[C@@H](C(C)(C)O)C[C@H]2OC(=O)[C@H](O)C(C)C` the Activity was “inactive”.
For `C/C=C(\C)[C@@H](O)C(=O)O[C@@H]1C[C@H](C(C)(C)O)[C@](C)(CCC(=O)O)[C@H]2CC[C@]3(C)C(=CC[C@H]3[C@H]3CO[C@H](C=C(C)C)C3)[C@@]21C`, the Activity was “inactive”.
`C/C=C(/C)[C@@H](O)C(=O)O[C@@H]1C[C@H](C(C)(C)O)[C@](C)(CCC(=O)O)[C@H]2[C@H](OC(=O)[C@H](O)/C(C)=C/C)C[C@]3(C)C(=CC[C@H]3[C@H]3CO[C@H](C=C(C)C)C3)[C@@]21C` was tested, and the Activity was “inactive”.
For `C/C=C(\C)[C@@H](O)C(=O)O[C@@H]1C[C@H](C(C)(C)O)[C@](C)(CCC(=O)O)[C@H]2[C@H](OC(=O)[C@H](O)[C@H](C)CC)C[C@]3(C)C(=CC[C@H]3[C@H]3CO[C@H](C=C(C)C)C3)[C@@]21C`, the Activity was “inactive”.
In the case of `CC[C@@H](C)[C@@H](O)C(=O)O[C@@H]1C[C@]2(C)C(=CC[C@H]2[C@H]2CO[C@H](C=C(C)C)C2)[C@@]2(C)[C@H]1[C@@](C)(CCC(=O)OC)[C@@H](C(C)(C)O)C[C@H]2OC(=O)[C@H](O)[C@H](C)CC` [ARGENTINIC ACID G METHYL ESTER], the IC50 is reported as 2.5 µg/mL (≈ 3.35 µM).
With `CC[C@@H](C)[C@@H](O)C(=O)O[C@@H]1C[C@H](C(C)(C)O)[C@](C)(CCC(=O)O)[C@H]2CC[C@]3(C)C(=CC[C@H]3[C@H]3CO[C@H](C=C(C)C)C3)[C@@]21C` the Activity was “inactive”.
`CC[C@@H](C)[C@@H](O)C(=O)O[C@@H]1C[C@]2(C)C(=CC[C@H]2[C@H]2CO[C@H](C=C(C)C)C2)[C@@]2(C)[C@H]1[C@@](C)(CCC(=O)O)[C@@H](C(C)(C)O)C[C@H]2OC(=O)[C@H](O)[C@H](C)CC` was tested, and the Activity was “inactive”.
`C/C=C(/C)[C@@H](O)C(=O)O[C@@H]1C[C@H](C(C)(C)O)[C@](C)(CCC(=O)OC)[C@H]2[C@H](OC(=O)[C@H](O)/C(C)=C/C)C[C@]3(C)C(=CC[C@H]3[C@H]3CO[C@H](C=C(C)C)C3)[C@@]21C` [ARGENTINIC ACID H METHYL ESTER] gave an IC50 of 2 µg/mL (≈ 2.69 µM).
`CC[C@@H](C)[C@@H](O)C(=O)O[C@@H]1C[C@H](C(C)(C)O)[C@](C)(CCC(=O)OC)[C@H]2CC[C@]3(C)C(=CC[C@H]3[C@H]3CO[C@H](C=C(C)C)C3)[C@@]21C` [ARGENTINIC ACID A METHYL ESTER] was tested, and the IC50 was 2 µg/mL (≈ 3.24 µM).
`C/C=C(\C)[C@@H](O)C(=O)O[C@@H]1C[C@H](C(C)(C)O)[C@](C)(CCC(=O)OC)[C@H]2[C@H](OC(=O)[C@H](O)[C@H](C)CC)C[C@]3(C)C(=CC[C@H]3[C@H]3CO[C@H](C=C(C)C)C3)[C@@]21C` [ARGENTINIC ACID D METHYL ESTER] showed an IC50 of 1 µg/mL (≈ 1.34 µM).
For `C/C=C(\C)[C@@H](O)C(=O)O[C@@H]1C[C@H](C(C)(C)O)[C@](C)(CCC(=O)OC)[C@H]2CC[C@]3(C)C(=CC[C@H]3[C@H]3CO[C@H](C=C(C)C)C3)[C@@]21C` [ARGENTINIC ACID C METHYL ESTER], the IC50 was 2 µg/mL (≈ 3.25 µM).
For `CC[C@@H](C)[C@@H](O)C(=O)O[C@@H]1C[C@]2(C)C(=CC[C@H]2[C@H]2CO[C@H](C=C(C)C)C2)[C@@]2(C)[C@H]1[C@@](C)(CCC(=O)OC)[C@@H](C(C)(C)O)C[C@H]2OC(=O)[C@H](O)C(C)C` [ARGENTINIC ACID F METHYL ESTER], the IC50 was 2 µg/mL (≈ 2.73 µM).
For `C/C=C(\C)[C@@H](O)C(=O)O[C@@H]1C[C@H](C(C)(C)O)[C@](C)(CCC(=O)OC)[C@H]2[C@H](OC(=O)[C@H](O)C(C)C)C[C@]3(C)C(=CC[C@H]3[C@H]3CO[C@H](C=C(C)C)C3)[C@@]21C` [ARGENTINIC ACID E METHYL ESTER], the IC50 was 3.5 µg/mL (≈ 4.79 µM).
